# Experiments:
# [1] = system: Human umbilical vein endothelial cells (HUVECs); assay: [3H]thymidine incorporation assay: VEGF-induced cell proliferation (DNA synthesis) of HUVECs; assay type: cell-based; settings: VEGF 10 ng/mL
# Description: (§1) Human umbilical vein endothelial cells were incubated in the absence (basal and control) or presence of tested sample (YD-3, 10, 15, 17, 21, 25, 26) with 30 μM, and then vascular endothelial growth factor (VEGF) was added (except for basal) to induce DNA synthesis, which was detected using [^3H] thymidine incorporation assay.
# as §1, with “10” for “30”, “inducd” for “induce”, “assay. Means±S.E. (n=5) were presented.” for “assay.”
# as §1, with “1” for “30”, “inducd” for “induce”, “assay. Means±S.E. (n=5) were presented.” for “assay.”
# (§2) Human umbilical vein endothelial cells (HUVECS) were isolated according to the protocols from Jaffe et al. and obtained from human umbilical cord veins with collagenase and cultured in 75 cm^2 plastic flasks in M199 containing 20% FBS, 15 μg/mL endothelial cell growth supplements (ECGs). Confirmation of their identity as endothelial cells was provided by detection of CD31 (PECAM-1), assessed by immunostaining. Experiments were conducted on HUVECs that had used in passage 2 to 5.
# Confluent HUVECs were trypsinized, suspended in DMEM supplemented with 20% FBS, and seeded at 1.0×10^4 cells per well into 96-well plates. After 24 h, the cells were washed twice with PBS and starved with 2% FBS-M199 medium for 24 h. The cells were incubated with or without indicated reagents and growth factors (VEGF; 10 ng/mL) for 24 h and harvested. Before the harvest, cells were incubated with [^3H]thymidine (2 μCi/mL) for 4 h, harvested with Filter-Mate (Packard), and incorporated radioactivity was determined.
# The effect of tested compounds on VEGF-induced cell proliferation of HUVECs was assessed with the [^3H]thymidine incorporation assay, and the results were illustrated in FIG. 5-FIG. 7.
# [2] = target: T1, protease activated receptor (PAR)-4 (Homo sapiens, UniProt Q96RI0); settings: previous works; cited from earlier work
# T1 sequence (Q96RI0 18-385): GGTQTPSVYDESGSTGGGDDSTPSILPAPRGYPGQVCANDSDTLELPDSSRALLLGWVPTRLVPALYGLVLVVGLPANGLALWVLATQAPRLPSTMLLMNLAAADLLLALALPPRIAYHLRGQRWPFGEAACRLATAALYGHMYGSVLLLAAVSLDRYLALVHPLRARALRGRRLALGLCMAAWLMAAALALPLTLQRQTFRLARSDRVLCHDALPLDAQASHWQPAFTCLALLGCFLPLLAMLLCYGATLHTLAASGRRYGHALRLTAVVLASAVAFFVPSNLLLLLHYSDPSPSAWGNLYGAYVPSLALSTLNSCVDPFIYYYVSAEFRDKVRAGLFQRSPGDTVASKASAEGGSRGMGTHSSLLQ
# [3] = system: thrombin-induced Ca++ signal and thromboxane production; settings: previous work; cited from earlier work
# [4] = system: human umbilial vein endothelial cells (HUVECs); settings: previous finding; cited from earlier work
# [5] = system: VEGF-induced angiogenesis; settings: previous finding; cited from earlier work
# [6] = system: Human umbilical vein endothelial cells (HUVECs); assay: VEGF-induced tube formation of HUVECs on Matrigel; assay type: cell-based; settings: FIG. 8
# Description: FIG. 8 show photographs of the results of in vitro assay (inhibition of tube formation). Human umbilical vein endothelial cells were cultured onto chamberslide, which was precoated with Matrigel (10 mg/ml). Cells were treated without (basal and control) or with tested sample (YD-3, 10, 15, 17, 21, 25, 26) and then vascular endothelial growth factor (VEGF) was added to induce tube formation. All photographs were taken at 100×magnification.
# as §2
# [7] = system: VEGF-induced angiogenesis in Matrigel plug; assay: In vivo Matrigel plug assay (neovascular formation, hemoglobin concentration); settings: nude mice, FIG. 9
# Description: Nude mice were subcutaneously injected with a Matrigel plug containing 150 ng/ml vascular endothelial growth factor (VEGF). Vehicle or tested sample (YD-3, 10, 15, 17, 21, 25, 26) was orally administered into the mice. After a seven-day administration, the animals were euthanized and the plugs were cut of the mice for the measurement of angiogenic effect using the hemoglobin concentration as the parameter by means of a hemoglobin detection kit (Sigma). Means±S.E. (n=3) were presented. Nude mice (6 weeks of age) were given s.c. injections of 500 μL of Matrigel (Becton Dickinson, Bedford, Mass.) at 4° C. with or without YC-1 and growth factor (150 ng/mL VEGF). After injection, the Matrigel rapidly formed a plug. After 7 days, the skin of the mouse was easily pulled back to expose the Matrigel plug, which remained intact. After quantitative differences were noted and photographed, hemoglobin was measured, as an indication of blood vessel formation, using the Drabkin method (Drabkin reagent kit 525, Sigma, St. Louis, Mo.). The concentration of hemoglobin was calculated from a known amount of hemoglobin assayed in parallel. The in vivo Matrigel plug assay was used in this study to determine quantitative the anti-angiogenic effect of tested compounds.
# [8] = system: angiogenesis; assay: Evaluation for anti-angiogenic activities (overall summary); settings: summary statement
# Description: 3-(4-Methylphenyl)-1H-indazole (10) and N^2-(substituted benzyl)-3-(4-methylphenyl)indazoles (15, 17, 21, 25, 26) were evaluated for anti-angiogenic activities.
# In this study, 3-(4-methylphenyl)-1H-indazole (10) and five of the above mentioned N^2-regioisomers, namely, compounds 15, 17, 21, 25 and 26 were selected for evaluating their effects on VEGF-induced cell proliferation, on VEGF-induced tube formation of HUVECs in vitro, and on neovascular formation in vivo.
melting point [°C],Compound,"inhibitory effect on VEGF-induced cell proliferation of HUVECs ([3H]thymidine incorporation) ([1]; 10 μM, FIG. 6)","inhibitory effect on VEGF-induced cell proliferation of HUVECs ([3H]thymidine incorporation) ([1]; 30 μM, FIG. 5)",inhibition of PAR-4-dependent activation [2],inhibition of low thrombin-induced Ca++ signal [3],inhibition of low thrombin-induced thromboxane production [3],inhibition of VEGF-induced cell proliferation in HUVECs [4],inhibition of VEGF-induced migration in HUVECs [4],inhibition of VEGF-induced tube formation in HUVECs [4],inhibition of VEGF-induced angiogenesis in Matrigel plug animal model [5],activity on VEGF-induced cell proliferation of HUVECs compared with positive control YD-3 ([1]; 1 μM),inhibitory activity on tube formation compared with other tested compounds and YD-3 [6],blockage of VEGF-induced tube formation of HUVECs ([6]; Matrigel-coated chamberslide),"anti-angiogenic activity in Matrigel plug assay (hemoglobin concentration) ([7]; 150 ng/ml VEGF plug, oral, seven-day administration)",anti-angiogenic potency in Matrigel plug assay compared with positive control YD-3 [7],anti-angiogenic activity (overall) [8]
,"CCOC(=O)c1ccc(-c2nn(Cc3ccccc3)c3ccccc23)cc1 [YD-3, Ethyl 4-(1-benzyl-1H-indazol-3-yl)benzoate]",significant inhibitory effect,significant inhibitory effect,selective and potent inhibitor,effectively inhibits,effectively inhibits,inhibit,inhibit,inhibit,inhibit,,,,,,
,"O=C(O)c1ccc(-c2nn(Cc3ccccc3)c3ccccc23)cc1 [CHS-6, 4-(1-benzyl-1H-indazol-3-yl)benzoic acid]",,,,,,inhibit,inhibit,inhibit,inhibit,,,,,,
107.4 to 109.5,"Cc1ccc(-c2c3ccccc3nn2Cc2ccc(Cl)cc2)cc1 [Compound 15, 2-(4-Chlorobenzyl)-3-(4-methylphenyl)-2H-indazole]",significant inhibitory effect,significant inhibitory effect,,,,,,,,better activity than positive control YD-3,more potent than other tested compounds and YD-3,significant blockage,significant anti-angiogenic activities,superior potency than the positive control YD-3,significant anti-angiogenic activity

# Reference: patent publication US20060106032A1, “Synthesis of N2 - (substituted arylmethyl) -3- (substituted phenyl) indazoles as novel anti-angiogenic agents” (YUNG SHIN PHARM. IND. CO., LTD., priority 2004, published 2006)
